In ChEMBL document CHEMBL3044587, “Synthesis of B-ring substituted flavones and evaluation of their antitumor and antioxidant activities” (Med Chem Res, 2013) one finds IC50, inhibition of growth and GI50 data, which are given here for ten molecules.

Common to all, as to format: functional
The test system of experiment [1] is Liver microsome. The experiment in a line: Antioxidant activity in Wistar albino Rattus norvegicus (rat) liver microsomes assessed as inhibition of lipid peroxidation after 1 hr by TBARS method. Background: Microsomes from liver hold many membrane-bound enzymes, among them those of drug oxidation.
Experiment [2] relates to MOLT-4. The experiment in a line: Growth inhibition of Homo sapiens (human) MOLT4 cells at 100 uM after 48 hr by SRB assay. The conditions noted are these: MOLT-4, 48 h, read-out: GI. For orientation: Sulforhodamine B stains cellular protein and so reports cell mass.
The subject of experiment [3] is MCF7. The experiment in a line: Growth inhibition of Homo sapiens (human) MCF7 cells at 100 uM after 48 hr by SRB assay. The note with it: MCF7, 48 h, read-out: GI.
For experiment [4], the system named is HepG2. In words: Growth inhibition of Homo sapiens (human) HepG2 cells at 100 uM after 48 hr by SRB assay. The conditions noted are these: HepG2, 48 h, read-out: GI.
The subject of experiment [5] is MCF7. The experiment in a line: Cytotoxicity against Homo sapiens (human) MCF7 cells after 48 hr by SRB assay. The note with it: MCF7, 48 h.
For experiment [6], the system named is HepG2. In words: Cytotoxicity against Homo sapiens (human) HepG2 cells after 48 hr by SRB assay. The conditions noted are these: HepG2, 48 h.
Experiment [7] concerns MOLT-4. The experiment in a line: Cytotoxicity against Homo sapiens (human) MOLT4 cells after 48 hr by SRB assay. The conditions noted are these: MOLT-4, 48 h.

In brackets after ≈: the same amount, converted by molar mass. Where a name gives a salt, the structure may show the parent alone.

A word on the IC50: it is the concentration needed to halve the response being measured. Consider `O=c1cc(-c2ccc(Cl)cc2)oc2ccccc12`, for which, in experiment [1], the IC50 turned out to be 60 µg/mL (≈ 234 µM). Besides, the inhibition of growth at 100 µM in experiment [2], in experiment [3] and in experiment [4] was less than 50% each time.
What is called GI50 is the concentration that inhibits growth by half. High values mean lower sensitivity of the cells, low ones greater sensitivity of the cells. Regarding `O=c1cc(-c2ccccc2)oc2ccccc12` [FLAVONE], the values for the GI50 in experiment [5] and in experiment [6] were 69.3 µM and 50.6 µM, respectively. Further, the IC50 in experiment [1] is 100 µg/mL (≈ 450 µM). The inhibition of growth at 100 µM in experiment [2] is less than 50%.
With `COc1ccc(-c2cc(=O)c3ccccc3o2)cc1OC` [3',4'-DIMETHOXYFLAVONE], the concentration for half-maximal inhibition (IC50) in experiment [1] stood at 40 µg/mL (≈ 142 µM). Further, the inhibition of growth at 100 µM in experiment [2], in experiment [3] and in experiment [4] was less than 50% each time.
As to `O=c1cc(-c2ccc(Cl)c([N+](=O)[O-])c2)oc2ccccc12`, the GI50 was found to be 50.7 µM in experiment [7], 40.9 µM in experiment [5] and 93.8 µM in experiment [6]. For the same molecule, the half-maximal inhibitory concentration (IC50) in experiment [1] amounted to 80 µg/mL (≈ 265 µM).
`COc1cc(OC)cc(-c2cc(=O)c3ccccc3o2)c1` [3',5'-DIMETHOXYFLAVONE]: the figures for the 50% growth inhibitory concentration (GI50) in experiment [7], in experiment [5] and in experiment [6] were less than 0.1 µM, less than 0.1 µM and 58.8 µM, respectively. Further, the IC50 in experiment [1] was found to be 40 µg/mL (≈ 142 µM).
In the case of `O=c1cc(-c2ccccc2)oc2cc(O)cc(O)c12` [CHRYSIN], the 50% growth inhibitory concentration (GI50) is 58.6 µM in experiment [7] and 69 µM in experiment [5]. Moreover, the half-inhibitory concentration (IC50) in experiment [1] is 60 µg/mL (≈ 236 µM). For the same molecule, the inhibition of growth at 100 µM in experiment [4] was less than 50%.
`O=c1cc(-c2cccc([N+](=O)[O-])c2)oc2ccccc12`: the GI50 was determined as 36 µM in experiment [7], 31 µM in experiment [5] and 94.9 µM in experiment [6]. Also, the IC50 in experiment [1] worked out at 60 µg/mL (≈ 225 µM).
For the molecule `COc1ccc(-c2cc(=O)c3ccccc3o2)cc1` [4'-METHOXYFLAVONE], the 50% growth inhibitory concentration (GI50) in experiment [7] worked out at 99.2 µM; in experiment [5], 61.8 µM. The IC50 in experiment [1] amounted to 60 µg/mL (≈ 238 µM). Also, in experiment [4], the inhibition of growth at 100 µM is less than 50%.
On to `COc1cccc2c1C(=O)c1c(O)c3c(c(O)c1C2=O)C[C@@](O)(C(=O)CO)C[C@@H]3O[C@H]1C[C@H](N)[C@H](O)[C@H](C)O1` [DOXORUBICIN HYDROCHLORIDE], for which the GI50 in experiment [7], in experiment [5] and in experiment [6] was less than 0.1 µM in each case.
As for `O=c1c(O)c(-c2ccc(O)c(O)c2)oc2cc(O)cc(O)c12` [QUERCETIN], the half-maximal inhibitory concentration (IC50) in experiment [1] turned out to be 20 µg/mL (≈ 66.2 µM).
